Experimental data as given in ChEMBL document CHEMBL1212812, “Multi-target spectral moment QSAR versus ANN for antiparasitic drugs against different parasite species” (Bioorg Med Chem, 2010).
Structures can show the parent of a compound that is named as a salt.

system: Plasmodium falciparum; assay: Antimicrobial activity against Plasmodium falciparum; format: functional, organism-based

Compared with Nc1nc(N)c(-c2cccc(Cl)c2)c(CCCO)n1, CCCOc1ccc(C2N=C(N)N=C(N)N2c2cccc(Cl)c2)cc1 (stereo unspecified) is 3-fold higher in IC50: 1 µM for the first, 3 µM for the second.

First: CCCCN(CC)C(P(=O)(O)O)P(=O)(O)O [(BUTYL(ETHYL)AMINO)METHYLENEDIPHOSPHONIC ACID]
Second: CCCCCC(O)(P(=O)(O)O)P(=O)(O)O
The IC50 of the first is 33-fold higher: 200 µM for the first, 6 µM for the second. The second is the more potent here.

First: CN(C)CC1=C(CN(C)C)C2c3ccccc3C1c1ccccc12
Second: CN(C)CC1C2c3ccccc3C(c3ccccc32)C1CO (stereo unspecified)
The IC50 of the first is 12-fold lower: 3 µM for the first, 35 µM for the second.

COc1cc(Cc2c(C)nc(N)nc2N)ccc1OCc1ccccc1 and CCc1nc(N)nc(N)c1Cc1ccc(OCc2ccccc2)c(OCc2ccccc2)c1 are the same in IC50: 3 µM for the first, 3 µM for the second.

CC(C)N(C(C)C)C(P(=O)(O)O)P(=O)(O)O [(DIISOPROPYLAMINO)METHYLENEDIPHOSPHONIC ACID] and Cc1cc(C)nc(NC(P(=O)(O)O)P(=O)(O)O)c1 are the same in IC50: 200 µM for the first, 200 µM for the second.

First: CNCCCN1c2ccccc2CCc2ccccc21 [DESIPRAMINE]
Second: CN(C)CCCN1c2ccccc2Sc2ccc(Cl)cc21 [CHLORPROMAZINE]
The IC50 of the first is 2.3-fold lower: 12 µM for the first, 28 µM for the second. The first is the more potent here.

CN(C)/C=N\C(=O)C1C2c3ccccc3C(c3ccccc32)C1C(=O)/N=C\N(C)C (stereo unspecified) and CCOC(=O)C1C2c3ccccc3C(c3ccccc32)C1C(=O)N(C)C (stereo unspecified) are within 1.5-fold of each other in IC50: 34 µM for the first, 33 µM for the second.

Compared with CCCCCCOc1c(OC)cc(NC(C)CCCN)c2nccc(C)c12 (stereo unspecified) [WR-242511], COc1cc(NC(C)CCCN)c2nccc(C)c2c1OCCCCCc1cccs1 (stereo unspecified) is 2.7-fold lower in IC50: 8 µM for the first, 3 µM for the second.

Compared with CC1(C)CCc2c(c3ccccc3c3nc4ccccc4nc23)O1, CC1(C)Oc2c(c3nc4ccccc4nc3c3ccccc23)CC1I (stereo unspecified) is 10-fold lower in IC50: 20 µM for the first, 2 µM for the second.

O=C1Cc2c([nH]c3ccc(Br)cc23)-c2ccccc2N1 [KENPAULLONE] and O=C1Cc2c([nH]c3ccc([N+](=O)[O-])cc23)-c2ccccc2N1 [ALSTERPAULLONE] are the same in IC50: 4 µM for the first, 4 µM for the second.

Going from CCCCCCCCCC[N+](C)(C)CCCS(=O)(=O)[O-] to CCCCCCCCCCCCCCCC[N+](C)(C)CCCS(=O)(=O)[O-], the IC50 falls from 782 µM to 65 µM (12-fold). The second is the more potent here.

O=C1Nc2ccc(Br)cc2/C1=C/C(=O)c1ccccc1 and O=C1Nc2ccccc2/C1=C/C(=O)c1ccc(Br)cc1 are within 1.5-fold of each other in IC50: 3 µM for the first, 4 µM for the second.

First: CCCCCCOc1c(OC)cc(NC(C)CCCN)c2nc(OC)c(C)cc12 (stereo unspecified)
Second: COc1cc(NC(C)CCCN)c2nccc(C)c2c1OCc1ccc(C(F)(F)F)cc1 (stereo unspecified)
The IC50 of the first is 13-fold higher: 38 µM for the first, 3 µM for the second. The second is the more potent here.

First: CCCCCCC(CCCC)C(O)(P(=O)(O)O)P(=O)(O)O (stereo unspecified)
Second: CCCCCCCCCCCC(O)(P(=O)(O)O)P(=O)(O)O
The IC50 of the first is 200-fold higher: 200 µM for the first, 1 µM for the second.

O=P(O)(O)C(Nc1ccc(Cl)nc1)P(=O)(O)O and O=P(O)(O)C(NC1CCCCCCC1)P(=O)(O)O [(CYCLOOCTYLAMINO)METHYLENEDIPHOSPHONIC ACID] are the same in IC50: 200 µM for the first, 200 µM for the second.

First: CC(=O)C(N)c1cc(O)c(O)c(O)c1 (stereo unspecified)
Second: O=C(NO)c1cccc(O)c1O
The IC50 of the first is 50-fold higher: 301 µM for the first, 6 µM for the second. The second is the more potent here.

Compared with CC1(C)N=C(N)N=C(N)N1c1ccc(Cl)cc1 [CYCLOGUANIL], NC1=NC(c2ccccc2)N(c2cccc(Cl)c2)C(N)=N1 (stereo unspecified) is 3-fold lower in IC50: 3 µM for the first, 1 µM for the second. The second is the more potent here.

Compared with CN(C)Cc1ccc(Nc2c3ccc(Cl)cc3nc3cc(Cl)ccc23)cc1, NS(=O)(=O)c1ccc(Nc2c3ccc(Cl)cc3nc3cc(Cl)ccc23)cc1 is 7-fold higher in IC50: 1 µM for the first, 7 µM for the second. The first is the more potent here.

CC(C)=CCC/C(C)=C/C[C@@]1(C)SC(=O)C(C)=C1O [THIOLACTOMYCIN 4] and CC(C)=CCC/C(C)=C/CC/C(C)=C/C[C@@]1(C)SC(=O)C(C)=C1O [THIOLACTOMYCIN 7] are the same in IC50: 8 µM for the first, 8 µM for the second.

COc1cc(Cc2c(C)nc(N)nc2N)cc(OC)c1OC and COc1cc(COc2ccc(Cc3cnc(N)nc3N)cc2)cc(OC)c1OC are within 1.5-fold of each other in IC50: 23 µM for the first, 21 µM for the second.

First: O=C1NC(=O)C(C(=O)Nc2ccc(Cl)cc2)c2ccccc21 (stereo unspecified) [TESICAM]
Second: O=C1C(O)=C([C@H]2CC[C@H](c3ccc(Cl)cc3)CC2)C(=O)c2ccccc21 [ATOVAQUONE]
The IC50 of the first is 16-fold higher: 16 µM for the first, 1 µM for the second. The second is the more potent here.

Going from COc1cc(Cc2cnc(N)nc2N)ccc1OCc1cc(OC)c(OC)c(OC)c1 to COc1ccc(Nc2c3ccc(N)cc3nc3cc(N)ccc23)cc1, the IC50 falls from 31 µM to 1 µM (31-fold).

First: CC[C@H]1CN2CCc3c([nH]c4ccc(O)cc34)[C@@H]2C[C@@H]1C[C@H]1c2[nH]c3ccccc3c2CCN1C
Second: CC[C@H]1CN2CCc3c([nH]c4cc(O)ccc34)[C@@H]2C[C@@H]1C[C@H]1c2[nH]c3ccccc3c2CCN1C
The IC50 of the first is 5-fold lower: 1 µM for the first, 5 µM for the second. The first is the more potent here.

Going from NC1=NC(c2cccc(Oc3cc(Cl)cc(Cl)c3)c2)N(c2cccc(Cl)c2)C(N)=N1 (stereo unspecified) to NC1=NC(c2cccc(Oc3ccc(Cl)cc3)c2)N(c2cccc(Cl)c2)C(N)=N1 (stereo unspecified), the IC50 falls from 6 µM to 4 µM (1.5-fold).

First: CN(C)C1C2c3ccccc3C(c3ccccc32)C1C(=O)O (stereo unspecified)
Second: CCOC(=O)C1C2c3ccccc3C(c3ccccc32)C1N(C)C (stereo unspecified)
The IC50 of the first is 1.7-fold higher: 50 µM for the first, 30 µM for the second.

Compared with CCCCCCCCCCCCCCCCOS(=O)(=O)O [SODIUM HEXADECYL SULFATE], CCCCCCCCCCOS(=O)(=O)O [SODIUM DECYL SULFATE] is 3.2-fold higher in IC50: 145 µM for the first, 460 µM for the second.

CC(C)(C)C(=O)/C=C1\C(=O)Nc2ccccc21 and CCOC(=O)/C(C#N)=C1/C(=O)Nc2ccccc21 are within 1.5-fold of each other in IC50: 44 µM for the first, 42 µM for the second.

Going from Nc1ccc(S(=O)(=O)c2ccc(N)cc2)cc1 [DAPSONE] to NC1=NC(c2ccc(Oc3ccccc3)cc2)N(c2ccc(Cl)cc2)C(N)=N1 (stereo unspecified), the IC50 falls from 18 µM to 7 µM (2.6-fold).

Compared with CC(C)=CCc1c(O)c2ccccc2c2nc3ccccc3nc12, CC1(C)Oc2c(c3nc4ccccc4nc3c3ccccc23)CC1S(=O)(=O)O (stereo unspecified) is 1.5-fold lower in IC50: 9 µM for the first, 6 µM for the second. The second is the more potent here.

Compared with CC[N+](CC)(CC)CCCCCCCC[N+](CC)(CC)CC, CCN(CC)CCCC(C)Nc1c2ccc(Cl)cc2nc2ccc(OC)cc12 (stereo unspecified) [QUINACRINE] is 41-fold higher in IC50: 1 µM for the first, 41 µM for the second.

Going from N/C(=N\O)c1cc(O)cc(O)c1 to CC(C)NC(=N)NC(=N)Nc1ccc(Cl)c(Cl)c1 [CHLORPROGUANIL], the IC50 falls from 589 µM to 9 µM (65-fold). The second is the more potent here.

NC(=O)C1C2c3ccccc3C(c3ccccc32)C1C(N)=O (single isomer, unassigned) and CC1C2c3ccccc3C(c3ccccc32)C1C(N)=O (stereo unspecified) are within 1.5-fold of each other in IC50: 42 µM for the first, 32 µM for the second.

Going from CC(=O)NO [ACETOHYDROXAMIC ACID] to CC1=C(O)SC(C)C1=O (stereo unspecified) [THIOLACTONE], the IC50 falls from 1030 µM to 471 µM (2.2-fold).

Going from CC1C2c3ccccc3C(c3ccccc32)C1C[N+](C)(C)C (stereo unspecified) to CN(C)C1CC2c3ccccc3C1c1ccccc12 (stereo unspecified), the IC50 falls from 17 µM to 9 µM (1.9-fold).

CCNCc1cc(Nc2ccnc3cc(Cl)ccc23)ccc1O [DESETHYL AMODIAQUINE] and COc1ccc2nc3cc(Cl)ccc3c(Nc3cc(CN4CCCC4)c(O)c(CN4CCCC4)c3)c2n1 [PYRONARIDINE] are within 1.5-fold of each other in IC50: 73 µM for the first, 64 µM for the second.

CO[C@H]1/C=C/O[C@@]2(C)Oc3c(C)c(O)c4c(O)c(c(/C=N/N5CCN(C)CC5)c(O)c4c3C2=O)NC(=O)/C(C)=C\C=C\[C@H](C)[C@H](O)[C@@H](C)[C@@H](O)[C@@H](C)[C@H](OC(C)=O)[C@@H]1C [RIFAMPIN] and c1ccc(N2CCN(c3ccccc3)C2c2ccc(N3CCN(c4ccc(C5N(c6ccccc6)CCN5c5ccccc5)cc4)CC3)cc2)cc1 are the same in IC50: 1 µM for the first, 1 µM for the second.

Compared with NC1=NC(c2cccc(Oc3ccccc3)c2)N(c2cccc(Cl)c2)C(N)=N1 (stereo unspecified), Cc1nc2cnncc2n1-c1ccc(Cl)cc1C(=O)c1ccccc1Cl is 4-fold lower in IC50: 4 µM for the first, 1 µM for the second. The second is the more potent here.

Going from C=C[C@H]1CN2CC[C@H]1C[C@@H]2[C@@H](O)c1ccnc2ccccc12 [CINCHONINE] to CC1C2c3ccccc3C(c3ccccc32)C1C(=O)Nc1ccccn1 (stereo unspecified), the IC50 rises from 23 µM to 214 µM (9.3-fold).
